Here are results for five molecules from PubChem BioAssay AID1259407 (Chemical Carcinogenesis Research Information System (CCRIS), 2018).

The test system of this series is CCRIS mutagenicity, Ames/micronucleus/aberration tests. The series can be described thus: CCRIS mutagenicity studies.
The mark [1] stands for this setting: Test System: AMES SALMONELLA TYPHIMURIUM, Strain/Indicator: TA98, Metabolic Activation: NONE, Method: PREINCUBATION
The mark [2] stands for this setting: Test System: AMES SALMONELLA TYPHIMURIUM, Strain/Indicator: TA98, Metabolic Activation: RAT LIVER S-9, PCB, Method: PREINCUBATION
Where [3] appears, read: Test System: AMES SALMONELLA TYPHIMURIUM, Strain/Indicator: TA100, Metabolic Activation: NONE, Method: PREINCUBATION
The mark [4] stands for this setting: Test System: AMES SALMONELLA TYPHIMURIUM, Strain/Indicator: TA100, Metabolic Activation: RAT LIVER S-9, PCB, Method: PREINCUBATION
The mark [5] stands for this setting: Test System: AMES SALMONELLA TYPHIMURIUM, Strain/Indicator: TA104, Metabolic Activation: NONE, Method: PREINCUBATION
[6] abbreviates: Test System: AMES SALMONELLA TYPHIMURIUM, Strain/Indicator: TA104, Metabolic Activation: RAT LIVER S-9, PCB, Method: PREINCUBATION
The mark [7] stands for this setting: Test System: E.COLI, Strain/Indicator: WP2 UVRA, Metabolic Activation: NONE, Method: PREINCUBATION
Setting [8] is: Test System: E.COLI, Strain/Indicator: WP2 UVRA, Metabolic Activation: RAT LIVER S-9, PCB, Method: PREINCUBATION

SMILES strings stand for the structures. Activity calls are given as the source filed them. No rule for the calls is given here.

Regarding `C[n+]1c2n(c(=O)c3ccccc31)CCc1c-2[nH]c2ccccc12`, the mutagenic call by setting is: (Test System: AMES SALMONELLA TYPHIMURIUM, Strain/Indicator: TA98, Metabolic Activation: NONE, Method: STANDARD PLATE) “inactive; negative”; (Test System: AMES SALMONELLA TYPHIMURIUM, Strain/Indicator: TA98, Metabolic Activation: RAT LIVER S-9, AROCLOR 1254 (10%), Method: STANDARD PLATE) “inactive; negative”; (Test System: AMES SALMONELLA TYPHIMURIUM, Strain/Indicator: TA100, Metabolic Activation: NONE, Method: STANDARD PLATE) “inactive; negative”; (Test System: AMES SALMONELLA TYPHIMURIUM, Strain/Indicator: TA100, Metabolic Activation: RAT LIVER S-9, AROCLOR 1254 (10%), Method: STANDARD PLATE) “inactive; negative”; (Test System: AMES SALMONELLA TYPHIMURIUM, Strain/Indicator: TA1535, Metabolic Activation: NONE, Method: STANDARD PLATE) “inactive; negative”; (Test System: AMES SALMONELLA TYPHIMURIUM, Strain/Indicator: TA1535, Metabolic Activation: RAT LIVER S-9, AROCLOR 1254 (10%), Method: STANDARD PLATE) “inactive; negative”. The mutagenic call runs as follows: (Test System: AMES SALMONELLA TYPHIMURIUM, Strain/Indicator: TA1537, Metabolic Activation: NONE, Method: STANDARD PLATE) “inactive; negative”; (Test System: AMES SALMONELLA TYPHIMURIUM, Strain/Indicator: TA1537, Metabolic Activation: RAT LIVER S-9, AROCLOR 1254 (10%), Method: STANDARD PLATE) “inactive; negative”.
For the molecule `O=C(Cl)Cc1ccccc1`, the mutagenic call is “active; positive” under setting [1]; “active; positive” under setting [2]; “active; positive” under setting [3]; “active; positive” under setting [4]; “active; positive” under setting [5]; “active; positive” under setting [6]. Also, the mutagenic call is “active; positive” under setting [7] and “active; positive” under setting [8].
Consider `Cc1ccc(C(=O)Cl)cc1`, for which the mutagenic call is “inactive; negative” under setting [1]; “inactive; negative” under setting [2]; “active; positive” under setting [3]; “active; positive” under setting [4]; “active; positive” under setting [5]; “active; positive” under setting [6]. Besides, the mutagenic call was “active; positive” under setting [7] and “active; positive” under setting [8].
Consider `Cc1ccccc1S(N)(=O)=O`, for which the mutagenic call under setting [1] is “inactive; negative”; the mutagenic call (Test System: AMES SALMONELLA TYPHIMURIUM, Strain/Indicator: TA98, Metabolic Activation: RAT LIVER S-9, PHENOBARBITAL AND BETA-NAPHTHOFLAVONE, Method: PREINCUBATION) is “inactive; negative”; the mutagenic call under setting [3] is “inactive; negative”; the mutagenic call (Test System: AMES SALMONELLA TYPHIMURIUM, Strain/Indicator: TA100, Metabolic Activation: RAT LIVER S-9, PHENOBARBITAL AND BETA-NAPHTHOFLAVONE, Method: PREINCUBATION) was “inactive; negative”; the mutagenic call (Test System: AMES SALMONELLA TYPHIMURIUM, Strain/Indicator: TA1535, Metabolic Activation: NONE, Method: PREINCUBATION) is “inactive; negative”; the mutagenic call (Test System: AMES SALMONELLA TYPHIMURIUM, Strain/Indicator: TA1535, Metabolic Activation: RAT LIVER S-9, PHENOBARBITAL AND BETA-NAPHTHOFLAVONE, Method: PREINCUBATION) is “inactive; negative”. Besides, the mutagenic call was “inactive; negative” (Test System: AMES SALMONELLA TYPHIMURIUM, Strain/Indicator: TA1537, Metabolic Activation: NONE, Method: PREINCUBATION); “inactive; negative” (Test System: AMES SALMONELLA TYPHIMURIUM, Strain/Indicator: TA1537, Metabolic Activation: RAT LIVER S-9, PHENOBARBITAL AND BETA-NAPHTHOFLAVONE, Method: PREINCUBATION); “inactive; negative” (Test System: AMES SALMONELLA TYPHIMURIUM, Strain/Indicator: TA1538, Metabolic Activation: NONE, Method: PREINCUBATION); “inactive; negative” (Test System: AMES SALMONELLA TYPHIMURIUM, Strain/Indicator: TA1538, Metabolic Activation: RAT LIVER S-9, PHENOBARBITAL AND BETA-NAPHTHOFLAVONE, Method: PREINCUBATION); “inactive; negative” (Test System: E.COLI, Strain/Indicator: WP2UVRA/PKM101, Metabolic Activation: NONE, Method: PREINCUBATION); “inactive; negative” (Test System: E.COLI, Strain/Indicator: WP2UVRA/PKM101, Metabolic Activation: RAT LIVER S-9, PHENOBARBITAL AND BETA-NAPHTHOFLAVONE, Method: PREINCUBATION). Also, the mutagenic call was “inactive; negative” (Test System: E.COLI, Strain/Indicator: WP2UVRA, Metabolic Activation: NONE, Method: PREINCUBATION) and “inactive; negative” (Test System: E.COLI, Strain/Indicator: WP2UVRA, Metabolic Activation: RAT LIVER S-9, PHENOBARBITAL AND BETA-NAPHTHOFLAVONE, Method: PREINCUBATION).
As for `CCC(=O)OCc1cccc([N+](=O)[O-])c1`, the mutagenic call was “inactive; negative” under setting [1]; “inactive; negative” under setting [3]; “inactive; negative” (Test System: AMES SALMONELLA TYPHIMURIUM, Strain/Indicator: TA100, Metabolic Activation: RAT, LIVER, S-9, AROCLOR 1254, Method: PREINCUBATION).
